Values of other authors in patent publication US20040106561A1, “Health supplement” (Novogen Research Pty. Ltd., priority 1992, published 2004).

Test system: oestrogen receptors
Conditions: animal and in vitro studies

Row | oestrogenic/anti-oestrogenic activity and SHBG-stimulating capacity relative to daidzein and formononetin | Compound
1 | approximately 10 times | O=c1c(-c2ccc(O)cc2)coc2cc(O)cc(O)c12 [genistein]

Same assay, conditions: in vitro and in vivo studies; descending order genistein, biochanin A, equol, daidzein, formononetin

Row | Compound | oestrogenic activity
2 | CC(C(=O)c1ccc(O)cc1O)c1ccc(O)cc1 (stereo not shown) [O-desmethylangolensin] | only very weakly oestrogenic
3 | O=c1c(-c2ccc(O)cc2)coc2cc(O)ccc12 [daidzein] | oestrogenic activity
4 | COc1ccc(-c2coc3cc(O)cc(O)c3c2=O)cc1 [biochanin A] | oestrogenic activity
5 | Oc1ccc([C@H]2COc3cc(O)ccc3C2)cc1 [equol] | oestrogenic activity

Second part, the molecule after the results:

Row | oestrogenic activity | Compound
6 | oestrogenic activity | O=c1c(-c2ccc(O)cc2)coc2cc(O)cc(O)c12 [genistein]
7 | non-oestrogenic | COc1cc2c(=O)c(-c3ccc(O)cc3)coc2cc1O [glycitein]
